This passage reports TGI and GI50 results from PubChem BioAssay (NCI).

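Dose response: 5 concentrations. Exposure: 48 h. Format: 96-well plates. Endpoint: linear interpolation; highest concentration if not reached. Abbreviation: GI50, concentration required for 50% inhibition of growth. At the TGI there is no net growth.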 A value given as a limit tells only on which side of the number the result lay.

What all share (assay): DTP human tumour cell line panel, 48 h
Experiment [1] has as its system K-562 leukemia.
Experiment [2] concerns NCI-H226 lung.
Experiment [3] relates to HOP-62 NSCLC.
For experiment [4], the system named is HOP-92 NSCLC.
The test system of experiment [5] is A549 NSCLC.
For experiment [6], the system named is LOX IMVI melanoma.
Experiment [7] concerns HL-60(TB) leukemia.
For experiment [8], the system named is UACC-257 melanoma.

As for `O=[N+]([O-])c1ccc(C=NC2CCCCC2)cc1`, the TGI in experiment [1], in experiment [2], in experiment [3], in experiment [4], in experiment [5] and in experiment [6] was above 100 µM each time. Further, the TGI in experiment [7] and in experiment [8] was above 100 µM each time.
`COC1(OC)CC2OC1C1N=NN(C(=O)OC(C)(C)C)C21` (stereo not drawn): the TGI in experiment [1], in experiment [2], in experiment [3], in experiment [4], in experiment [5] and in experiment [6] was above 100 µM throughout. Also, the TGI in experiment [7] was 81.6 µM; in experiment [8], above 100 µM.
Turning to `CCOC(=S)SSSC(=S)OCC`, the total growth inhibition concentration (TGI) in experiment [1], in experiment [2], in experiment [3], in experiment [4], in experiment [5] and in experiment [6] was above 100 µM each time. Also, the TGI in experiment [7] and in experiment [8] was above 100 µM throughout.
With `CC1(C)OC2=C(CC1Br)C(=O)C(=O)c1ccccc12` (stereo not drawn), the GI50 is 2.23 µM in experiment [1]; 1.7 µM in experiment [2]; 1.99 µM in experiment [3]; 2.33 µM in experiment [4]; 2.41 µM in experiment [5]; 1 µM in experiment [6]. Moreover, the GI50 in experiment [7] is 1.8 µM; in experiment [8], 1.76 µM. For the same compound, the TGI in experiment [1] worked out at 4.89 µM; in experiment [2], 3.12 µM; in experiment [3], 3.62 µM; in experiment [4], 3.97 µM; in experiment [5] it was 4.87 µM; in experiment [6], 3.39 µM. Moreover, the values for the TGI in experiment [7] and in experiment [8] were 4.57 µM and 3.27 µM, respectively.
Take `N#CC(C#N)=C1Nc2ccccc2S1`: the GI50 in experiment [1] is 38.3 µM; in experiment [2], 27.3 µM; in experiment [3], 40.3 µM; in experiment [4] it was 2.59 µM; in experiment [5], 23.5 µM; in experiment [6], 42.5 µM. Moreover, the GI50 in experiment [7] was 30.1 µM; in experiment [8], 21.4 µM. For the same compound, the TGI is above 100 µM in experiment [1]; 76.8 µM in experiment [2]; above 100 µM in experiment [3]; 18.1 µM in experiment [4]; above 100 µM in experiment [5]; above 100 µM in experiment [6]. The TGI in experiment [7] was above 100 µM; in experiment [8], 68.7 µM.
Turning to `NC1=NC(c2ccccc2)CC(c2cc(Cl)ccc2O)=N1` (stereo not drawn), the TGI in experiment [1] was determined as 40.8 µM; in experiment [2] it was 37.8 µM; in experiment [3], 30.2 µM; in experiment [4] it was 33.5 µM; in experiment [5], 29 µM; in experiment [6] it was 29.5 µM. Further, the figures for the TGI in experiment [7] and in experiment [8] were 40.1 µM and 35.7 µM, respectively.
`COc1ccc(-c2onc(N)c2-c2cc(OC)c3c(c2)OCO3)cc1`: the GI50 in experiment [1] was 0.473 µM; in experiment [2] it was 14.2 µM; in experiment [3] it was 4.53 µM; in experiment [4] it was 4.98 µM; in experiment [5] it was 2.95 µM; in experiment [6], 3.68 µM. The GI50 was 1.87 µM in experiment [7] and 3.43 µM in experiment [8]. In addition, the total growth inhibition concentration (TGI) in experiment [1], in experiment [2], in experiment [3], in experiment [4], in experiment [5] and in experiment [6] was above 100 µM throughout. The TGI in experiment [7] was 7.53 µM; in experiment [8], above 100 µM.
Take `C/C(O)=C(\N=O)C(=O)Nc1ccc(Cl)cc1Cl`: the TGI in experiment [1], in experiment [2], in experiment [3], in experiment [4], in experiment [5] and in experiment [6] was above 100 µM throughout. The TGI in experiment [7] and in experiment [8] was above 100 µM each time.
Consider `O=C(O)c1nn(-c2ccccc2-c2n[nH]c(=O)[nH]c2=O)c(=O)[nH]c1=O`, for which the TGI in experiment [1], in experiment [2], in experiment [3], in experiment [4], in experiment [5] and in experiment [6] was above 100 µM each time. Further, the TGI in experiment [7] and in experiment [8] was above 100 µM throughout.
For `O=C1c2cccc([N+](=O)[O-])c2C(=O)N1c1ncn[nH]1`, the TGI in experiment [1] was above 100 µM; in experiment [2], above 100 µM; in experiment [3], above 100 µM; in experiment [4] it was 52.6 µM; in experiment [5] it was above 100 µM; in experiment [6], above 100 µM. The TGI in experiment [7] and in experiment [8] was above 100 µM each time.
Turning to `O=C(O)CCNC1CCCCC1`, the GI50 in experiment [1], in experiment [2], in experiment [3], in experiment [4], in experiment [5] and in experiment [6] was above 100 µM each time. The GI50 in experiment [7] and in experiment [8] was above 100 µM each time. The TGI in experiment [1], in experiment [2], in experiment [3], in experiment [4], in experiment [5] and in experiment [6] was above 100 µM throughout. Further, the TGI in experiment [7] and in experiment [8] was above 100 µM throughout.
On to `CCOCC(=O)N[C@H]1CCc2cc(OC)c(OC)c(OC)c2-c2ccc(OC)c(=O)cc21`, for which the concentration for total growth inhibition (TGI) is above 100 µM in experiment [1]; 2.52 µM in experiment [2]; above 100 µM in experiment [3]; 7.24 µM in experiment [4]; above 100 µM in experiment [5]; above 100 µM in experiment [6]. The TGI was 0.101 µM in experiment [7] and above 100 µM in experiment [8].
